Values belong to the compound of their own block, whether it stands above or below them.
What was measured:
Assay in all cases: radiometric filter-binding kinase assay
[1] = tested on: RPS6KB1 (human), P23443 [T412E]; conditions: compound 10.0 µM; ATP 100 µM
[2] = biological target: GSK3B (human) (UniProt P49841); conditions: compound 10.0 µM; ATP 100 µM
[3] = tested on: SGK1 (human), O00141 [S422D]; conditions: compound 10.0 µM; ATP 100 µM
[4] = biological target: RPS6KA5 KD1 KD2 (human) (UniProt O75582); conditions: compound 10.0 µM; ATP 100 µM
[5] = biological target: MAPK11 (human) (UniProt Q15759); conditions: compound 10.0 µM; ATP 100 µM
[6] = tested on: CSNK1A1 (rat); conditions: ATP 100 µM, accession and sequence are those of the human protein; for residual activity: compound 10.0 µM
[7] = biological target: AKT1 (human) (UniProt P31749); conditions: compound 10.0 µM; ATP 100 µM
AKT1 (human), sequence (P31749 whole entry, looked up): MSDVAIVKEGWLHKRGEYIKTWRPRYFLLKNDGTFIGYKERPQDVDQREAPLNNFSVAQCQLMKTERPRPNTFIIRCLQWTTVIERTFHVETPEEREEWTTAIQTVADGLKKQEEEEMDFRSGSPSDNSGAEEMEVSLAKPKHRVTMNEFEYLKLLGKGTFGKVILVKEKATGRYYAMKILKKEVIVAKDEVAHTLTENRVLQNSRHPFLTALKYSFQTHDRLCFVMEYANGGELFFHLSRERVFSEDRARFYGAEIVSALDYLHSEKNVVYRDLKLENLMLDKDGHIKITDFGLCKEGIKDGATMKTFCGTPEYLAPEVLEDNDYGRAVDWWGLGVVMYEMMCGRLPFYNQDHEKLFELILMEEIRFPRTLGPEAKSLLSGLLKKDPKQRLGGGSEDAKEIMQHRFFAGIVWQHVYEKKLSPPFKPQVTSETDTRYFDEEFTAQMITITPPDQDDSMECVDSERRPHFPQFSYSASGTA

[8] = biological target: MAPKAPK2 (human) (UniProt P49137); conditions: compound 10.0 µM; ATP 100 µM
[9] = biological target: MAPK14 (human) (UniProt Q16539); conditions: compound 10.0 µM; ATP 100 µM
[10] = biological target: LCK (human) (UniProt P06239); conditions: compound 10.0 µM; ATP 100 µM
LCK (human), sequence (P06239 whole entry, looked up): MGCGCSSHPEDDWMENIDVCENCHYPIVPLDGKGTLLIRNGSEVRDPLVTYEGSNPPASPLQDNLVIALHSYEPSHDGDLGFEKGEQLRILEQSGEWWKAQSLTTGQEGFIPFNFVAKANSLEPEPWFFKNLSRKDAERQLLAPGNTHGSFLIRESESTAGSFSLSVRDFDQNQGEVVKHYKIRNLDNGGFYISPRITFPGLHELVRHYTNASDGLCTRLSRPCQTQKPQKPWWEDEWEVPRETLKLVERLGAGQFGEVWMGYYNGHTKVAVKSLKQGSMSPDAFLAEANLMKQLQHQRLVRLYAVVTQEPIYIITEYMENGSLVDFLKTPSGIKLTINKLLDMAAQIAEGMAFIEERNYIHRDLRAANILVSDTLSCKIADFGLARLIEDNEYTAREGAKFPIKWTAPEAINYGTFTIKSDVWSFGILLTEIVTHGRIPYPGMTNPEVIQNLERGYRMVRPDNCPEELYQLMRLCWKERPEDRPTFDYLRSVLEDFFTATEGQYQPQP

[11] = biological target: CDK2 CCNA2 (human) (UniProt P24941+P20248); conditions: compound 10.0 µM; ATP 100 µM
[12] = tested on: DYRK1A (rat); conditions: compound 10.0 µM; ATP 100 µM; accession and sequence are those of the human protein
[13] = biological target: MAPK8 (human) (UniProt P45983); conditions: compound 10.0 µM; ATP 100 µM
MAPK8 (human), sequence (P45983 whole entry, looked up): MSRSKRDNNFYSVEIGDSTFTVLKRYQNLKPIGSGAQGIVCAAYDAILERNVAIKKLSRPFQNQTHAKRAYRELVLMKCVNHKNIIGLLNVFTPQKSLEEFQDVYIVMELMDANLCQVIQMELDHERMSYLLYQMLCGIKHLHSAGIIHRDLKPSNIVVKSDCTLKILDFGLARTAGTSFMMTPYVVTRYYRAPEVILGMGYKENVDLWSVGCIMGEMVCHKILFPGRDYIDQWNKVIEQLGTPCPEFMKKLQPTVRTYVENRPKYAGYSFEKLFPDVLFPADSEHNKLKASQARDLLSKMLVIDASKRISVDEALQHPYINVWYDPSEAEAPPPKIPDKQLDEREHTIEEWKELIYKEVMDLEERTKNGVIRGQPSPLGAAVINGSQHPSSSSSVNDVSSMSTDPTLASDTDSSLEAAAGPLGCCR

[14] = biological target: CSNK2A1 or CSNK2A2 (human) (UniProt P19784+P68400); conditions: compound 10.0 µM; ATP 100 µM
[15] = tested on: MAP2K1 (rabbit); conditions: compound 10.0 µM; ATP 100 µM; accession and sequence are those of the human protein
[16] = biological target: PRKCA (human) (UniProt P17252); conditions: compound 10.0 µM; ATP 100 µM
[17] = biological target: PDPK1 (human) (UniProt O15530); conditions: compound 10.0 µM; ATP 100 µM
[18] = tested on: PRKAA1 or PRKAA2 (rat); conditions: compound 10.0 µM; ATP 100 µM; accession and sequence are those of the human protein
[19] = tested on: PRKACA or PRKACB (cow); conditions: compound 10.0 µM; accession and sequence are those of the human protein
[20] = biological target: MAPK12 (human) (UniProt P53778); conditions: compound 10.0 µM; ATP 100 µM
MAPK12 (human), sequence (P53778 whole entry, looked up): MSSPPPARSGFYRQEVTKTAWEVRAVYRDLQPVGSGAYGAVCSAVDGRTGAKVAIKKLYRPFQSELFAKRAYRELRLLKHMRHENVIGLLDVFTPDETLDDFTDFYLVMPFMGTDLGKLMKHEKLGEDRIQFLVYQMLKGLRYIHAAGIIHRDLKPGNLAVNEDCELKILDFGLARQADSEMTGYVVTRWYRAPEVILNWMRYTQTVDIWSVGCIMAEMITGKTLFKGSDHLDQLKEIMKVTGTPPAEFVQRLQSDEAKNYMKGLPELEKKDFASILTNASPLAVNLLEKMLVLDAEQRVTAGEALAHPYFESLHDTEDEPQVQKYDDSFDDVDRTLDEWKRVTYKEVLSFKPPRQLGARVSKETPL

[21] = biological target: CSK (human) (UniProt P41240); conditions: ATP 100 µM; for residual activity: compound 10.0 µM
[22] = tested on: MAPK1 (mouse); conditions: compound 10.0 µM; ATP 100 µM; accession and sequence are those of the human protein
[23] = tested on: ROCK2 (rat); conditions: compound 10.0 µM; ATP 100 µM; accession and sequence are those of the human protein
[24] = biological target: MAPKAPK5 (human) (UniProt Q8IW41); conditions: compound 10.0 µM; ATP 100 µM
MAPKAPK5 (human), sequence (Q8IW41 whole entry, looked up): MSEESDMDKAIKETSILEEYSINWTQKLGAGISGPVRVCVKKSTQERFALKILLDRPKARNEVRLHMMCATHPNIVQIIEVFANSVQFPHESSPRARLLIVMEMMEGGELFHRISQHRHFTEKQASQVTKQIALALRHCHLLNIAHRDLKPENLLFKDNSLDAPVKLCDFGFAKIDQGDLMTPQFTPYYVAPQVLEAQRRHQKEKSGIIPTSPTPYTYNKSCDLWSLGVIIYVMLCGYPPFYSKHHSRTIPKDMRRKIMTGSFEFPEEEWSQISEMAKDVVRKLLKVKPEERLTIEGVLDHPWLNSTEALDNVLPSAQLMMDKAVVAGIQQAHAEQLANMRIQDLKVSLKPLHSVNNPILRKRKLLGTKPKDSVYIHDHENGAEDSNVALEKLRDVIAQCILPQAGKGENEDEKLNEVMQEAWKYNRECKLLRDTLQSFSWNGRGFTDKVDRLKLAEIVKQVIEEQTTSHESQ

[25] = tested on: PHKG1 or PHKG2 (rabbit); conditions: compound 10.0 µM; ATP 100 µM; accession and sequence are those of the human protein
[26] = biological target: MAPK13 (human) (UniProt O15264); conditions: compound 10.0 µM; ATP 100 µM
MAPK13 (human), sequence (O15264 whole entry, looked up): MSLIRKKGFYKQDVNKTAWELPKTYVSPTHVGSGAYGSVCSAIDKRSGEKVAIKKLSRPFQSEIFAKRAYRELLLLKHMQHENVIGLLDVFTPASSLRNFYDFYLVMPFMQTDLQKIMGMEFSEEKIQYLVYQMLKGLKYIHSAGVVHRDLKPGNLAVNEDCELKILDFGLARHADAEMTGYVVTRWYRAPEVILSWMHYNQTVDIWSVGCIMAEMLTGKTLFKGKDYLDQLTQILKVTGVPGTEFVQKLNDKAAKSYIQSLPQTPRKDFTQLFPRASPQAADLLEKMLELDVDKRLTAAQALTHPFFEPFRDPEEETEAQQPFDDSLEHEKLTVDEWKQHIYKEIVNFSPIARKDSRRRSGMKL

[27] = biological target: CHEK1 (human) (UniProt O14757); conditions: compound 10.0 µM; ATP 100 µM
CHEK1 (human), sequence (O14757 whole entry, looked up): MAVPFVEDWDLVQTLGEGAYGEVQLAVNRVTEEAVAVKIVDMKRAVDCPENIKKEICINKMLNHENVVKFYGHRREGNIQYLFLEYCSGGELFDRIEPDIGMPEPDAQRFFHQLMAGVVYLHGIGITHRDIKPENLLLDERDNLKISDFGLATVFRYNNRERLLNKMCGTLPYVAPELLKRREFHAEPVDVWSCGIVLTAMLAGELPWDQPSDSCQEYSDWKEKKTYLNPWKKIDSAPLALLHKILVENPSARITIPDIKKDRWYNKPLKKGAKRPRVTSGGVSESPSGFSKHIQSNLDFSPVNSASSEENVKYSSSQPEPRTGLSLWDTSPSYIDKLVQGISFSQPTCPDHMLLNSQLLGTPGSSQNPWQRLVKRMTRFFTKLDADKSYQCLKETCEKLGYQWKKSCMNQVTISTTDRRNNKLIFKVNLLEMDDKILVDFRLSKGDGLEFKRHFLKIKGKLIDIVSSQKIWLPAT

[28] = tested on: RPS6KA1 (rat); conditions: compound 10.0 µM; ATP 100 µM; accession and sequence are those of the human protein

SGK1 (human), O00141 [S422D], sequence (O00141 whole entry S422D, looked up): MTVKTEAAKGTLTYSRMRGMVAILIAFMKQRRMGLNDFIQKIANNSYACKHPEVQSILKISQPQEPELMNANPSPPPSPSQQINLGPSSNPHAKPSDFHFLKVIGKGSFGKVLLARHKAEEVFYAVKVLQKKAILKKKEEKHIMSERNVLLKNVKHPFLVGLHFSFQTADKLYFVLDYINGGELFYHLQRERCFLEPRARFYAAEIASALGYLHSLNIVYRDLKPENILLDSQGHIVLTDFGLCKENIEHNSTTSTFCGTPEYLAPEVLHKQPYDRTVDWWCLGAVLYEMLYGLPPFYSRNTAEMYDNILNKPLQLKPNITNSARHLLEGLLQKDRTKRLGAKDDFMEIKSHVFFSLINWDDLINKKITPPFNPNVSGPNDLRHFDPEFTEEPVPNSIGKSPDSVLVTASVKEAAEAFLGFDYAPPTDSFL
GSK3B (human), sequence (P49841 whole entry, looked up): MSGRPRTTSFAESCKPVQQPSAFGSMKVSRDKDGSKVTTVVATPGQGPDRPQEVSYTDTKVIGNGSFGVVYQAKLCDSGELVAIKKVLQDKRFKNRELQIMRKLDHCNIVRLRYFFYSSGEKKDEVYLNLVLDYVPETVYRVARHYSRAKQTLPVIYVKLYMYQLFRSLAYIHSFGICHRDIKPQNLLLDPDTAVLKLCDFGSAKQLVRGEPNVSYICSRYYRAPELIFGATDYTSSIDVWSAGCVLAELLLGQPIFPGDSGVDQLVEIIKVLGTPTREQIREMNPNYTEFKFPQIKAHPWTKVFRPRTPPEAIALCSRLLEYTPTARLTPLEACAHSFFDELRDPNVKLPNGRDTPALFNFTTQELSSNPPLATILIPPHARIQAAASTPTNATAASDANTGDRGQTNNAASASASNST

Compound: O=C1Cc2c([nH]c3ccc(Br)cc23)-c2ccccc2N1
residual activity [1]: 117%
residual activity [2]: 6%
residual activity [3]: 92%
residual activity [4]: 92%
residual activity [5]: 108%
residual activity [6]: 99%
residual activity [26]: 104%
residual activity [7]: 86%
residual activity [8]: 110%
residual activity [11]: 22%
residual activity [12]: 116%
residual activity [13]: 128%
residual activity [14]: 99%
residual activity [15]: 103%
residual activity [16]: 120%
residual activity [17]: 52%
residual activity [18]: 72%
residual activity [19]: 109%
residual activity [20]: 87%
residual activity [27]: 65%
residual activity [21]: 86%
residual activity [22]: 70%
residual activity [23]: 53%
residual activity [24]: 83%
residual activity [28]: 86%
residual activity [25]: 110%

Compound: CC[C@@H](CO)Nc1nc(NCc2ccccc2)c2ncn(C(C)C)c2n1
residual activity [1]: 94%
residual activity [2]: 106%
residual activity [3]: 104%
residual activity [4]: 92%
residual activity [5]: 104%
residual activity [26]: 106%
residual activity [7]: 89%
residual activity [8]: 85%
residual activity [10]: 97%
residual activity [13]: 91%
residual activity [14]: 101%
residual activity [15]: 93%
residual activity [16]: 101%
residual activity [17]: 104%
residual activity [18]: 95%
residual activity [19]: 93%
residual activity [27]: 95%
residual activity [21]: 109%
residual activity [22]: 81%
residual activity [23]: 94%
residual activity [24]: 87%
residual activity [28]: 69%
residual activity [25]: 80%

Compound: Cc1ccc(-c2nn(C(C)(C)C)c3ncnc(N)c23)cc1
residual activity [1]: 43%
residual activity [2]: 86%
residual activity [3]: 94%
residual activity [4]: 55%
residual activity [5]: 22%
residual activity [6]: 8%
residual activity [26]: 102%
residual activity [7]: 97%
residual activity [8]: 96%
residual activity [9]: 13%
residual activity [10]: 0%
residual activity [11]: 75%
residual activity [12]: 101%
residual activity [13]: 98%
residual activity [14]: 96%
residual activity [15]: 52%
residual activity [16]: 80%
residual activity [17]: 97%
residual activity [18]: 93%
residual activity [19]: 76%
residual activity [27]: 91%
IC50 [21]: 0.52 µM
residual activity [21]: 3%
residual activity [22]: 75%
residual activity [23]: 65%
residual activity [24]: 85%
residual activity [28]: 69%
residual activity [25]: 70%

Now from value to compound:

residual activity [1]: 64%
residual activity [2]: 4%
residual activity [3]: 42%
residual activity [4]: 98%
residual activity [5]: 64%
residual activity [6]: 86%
residual activity [7]: 61%
residual activity [8]: 40%
residual activity [9]: 79%
residual activity [10]: 19%
residual activity [11]: 5%
residual activity [12]: 102%
residual activity [13]: 89%
residual activity [14]: 67%
residual activity [15]: 96%
residual activity [16]: 93%
residual activity [17]: 41%
residual activity [18]: 36%
residual activity [19]: 79%
residual activity [20]: 55%
residual activity [21]: 90%
residual activity [22]: 64%
residual activity [23]: 45%
residual activity [24]: 78%
residual activity [25]: 77%
Compound: O=C1Cc2c([nH]c3ccc([N+](=O)[O-])cc23)-c2ccccc2N1

residual activity [1]: 93%
residual activity [2]: 99%
residual activity [3]: 94%
residual activity [4]: 93%
residual activity [5]: 84%
IC50 [6]: 9.9 µM
residual activity [6]: 54%
residual activity [26]: 95%
residual activity [7]: 108%
residual activity [8]: 98%
residual activity [9]: 100%
residual activity [11]: 84%
residual activity [12]: 60%
residual activity [13]: 99%
residual activity [14]: 76%
residual activity [15]: 89%
residual activity [16]: 100%
residual activity [17]: 82%
residual activity [18]: 94%
residual activity [20]: 83%
residual activity [27]: 96%
residual activity [21]: 96%
residual activity [22]: 92%
residual activity [23]: 93%
residual activity [24]: 97%
residual activity [28]: 115%
residual activity [25]: 99%
Compound: Nc1ncnc2c1cnn2-c1ccccc1

residual activity [1]: 70%
residual activity [2]: 113%
residual activity [3]: 111%
residual activity [4]: 57%
residual activity [5]: 26%
residual activity [6]: 6%
residual activity [26]: 96%
residual activity [7]: 77%
residual activity [8]: 106%
residual activity [9]: 21%
residual activity [11]: 68%
residual activity [12]: 94%
residual activity [13]: 98%
residual activity [14]: 90%
residual activity [15]: 55%
residual activity [16]: 66%
residual activity [17]: 99%
residual activity [18]: 84%
residual activity [19]: 74%
residual activity [20]: 90%
residual activity [27]: 93%
residual activity [21]: 3%
residual activity [22]: 61%
residual activity [23]: 75%
residual activity [24]: 85%
residual activity [28]: 114%
residual activity [25]: 93%
Compound: CC(C)(C)n1nc(-c2ccc(Cl)cc2)c2c(N)ncnc21

Reference: the kinase profiling compilation of Christmann-Franck et al. (2016)
